In series [1] the test system is Liver microsomes. As to the kind of experiment: Metabolic stability in rat liver microsomes in presence of CYP1A2 inhibitor furafylline. The series is classed as ADME, Microsome. (Microsomes from liver hold many membrane-bound enzymes, among them those of drug oxidation.)
For series [2], the target named is T1, Cytochrome P450 2B6 (Homo sapiens, UniProt P20813).
T1 sequence (P20813 whole entry): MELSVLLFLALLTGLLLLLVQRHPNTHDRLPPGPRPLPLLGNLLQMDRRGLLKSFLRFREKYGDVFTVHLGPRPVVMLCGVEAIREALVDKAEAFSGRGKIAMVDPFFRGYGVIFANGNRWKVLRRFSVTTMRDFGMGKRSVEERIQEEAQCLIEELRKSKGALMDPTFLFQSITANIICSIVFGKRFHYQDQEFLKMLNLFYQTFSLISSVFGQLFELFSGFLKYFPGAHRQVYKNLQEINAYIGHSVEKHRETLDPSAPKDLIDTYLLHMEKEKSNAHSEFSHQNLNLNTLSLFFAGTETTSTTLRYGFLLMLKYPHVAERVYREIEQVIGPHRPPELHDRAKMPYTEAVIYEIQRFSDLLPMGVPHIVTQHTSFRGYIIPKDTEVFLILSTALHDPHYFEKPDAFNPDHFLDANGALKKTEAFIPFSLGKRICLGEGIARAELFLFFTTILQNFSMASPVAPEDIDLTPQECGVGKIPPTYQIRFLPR
As to the kind of experiment: Activity of human recombinant CYP2B6 assessed as compound remaining. It is filed as ADME. The conditions noted are these: recombinant enzyme.

For series [3], the target named is T2, Cytochrome P450 1A2 (Homo sapiens, UniProt P05177).
T2 sequence (P05177 whole entry): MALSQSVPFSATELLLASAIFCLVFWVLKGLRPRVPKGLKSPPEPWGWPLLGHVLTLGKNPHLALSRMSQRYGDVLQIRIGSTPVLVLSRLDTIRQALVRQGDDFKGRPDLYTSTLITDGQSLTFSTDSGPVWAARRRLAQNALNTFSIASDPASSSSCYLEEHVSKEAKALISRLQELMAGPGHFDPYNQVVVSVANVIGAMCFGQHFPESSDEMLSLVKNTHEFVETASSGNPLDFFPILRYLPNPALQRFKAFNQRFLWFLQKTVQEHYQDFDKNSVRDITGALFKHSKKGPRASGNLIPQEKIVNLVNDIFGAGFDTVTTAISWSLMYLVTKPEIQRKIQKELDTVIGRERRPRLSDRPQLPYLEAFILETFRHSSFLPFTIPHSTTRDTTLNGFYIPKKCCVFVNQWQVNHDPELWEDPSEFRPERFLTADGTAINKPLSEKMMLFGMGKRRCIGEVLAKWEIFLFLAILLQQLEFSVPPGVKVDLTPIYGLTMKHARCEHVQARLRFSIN
Kind of series: Activity of human recombinant CYP1A2 assessed as compound remaining. It is filed as ADME. The conditions noted are these: recombinant enzyme.

The target of series [4] is Cytochrome P450 2D6 (Homo sapiens, UniProt P10635). Kind of series: Activity of human recombinant CYP2D6 assessed as compound remaining. The conditions noted are these: recombinant enzyme. The series is classed as ADME.
Cytochrome P450 2D6, sequence (P10635 whole entry): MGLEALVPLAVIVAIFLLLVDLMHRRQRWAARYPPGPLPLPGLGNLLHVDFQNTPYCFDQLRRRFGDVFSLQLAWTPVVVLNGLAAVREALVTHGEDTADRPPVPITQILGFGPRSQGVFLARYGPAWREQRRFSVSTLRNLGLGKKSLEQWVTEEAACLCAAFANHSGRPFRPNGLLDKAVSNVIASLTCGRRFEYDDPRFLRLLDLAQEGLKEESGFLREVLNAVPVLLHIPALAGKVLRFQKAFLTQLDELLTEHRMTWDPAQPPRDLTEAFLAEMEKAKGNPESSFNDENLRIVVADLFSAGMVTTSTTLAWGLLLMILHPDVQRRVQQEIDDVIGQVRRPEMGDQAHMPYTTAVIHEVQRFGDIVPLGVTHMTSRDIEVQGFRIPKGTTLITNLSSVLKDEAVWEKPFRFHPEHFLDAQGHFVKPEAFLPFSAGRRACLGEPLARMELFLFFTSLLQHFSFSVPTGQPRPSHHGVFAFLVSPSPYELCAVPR
For series [5], the target named is T3, Cytochrome P450 2C8 (Homo sapiens, UniProt P10632).
T3 sequence (P10632 whole entry): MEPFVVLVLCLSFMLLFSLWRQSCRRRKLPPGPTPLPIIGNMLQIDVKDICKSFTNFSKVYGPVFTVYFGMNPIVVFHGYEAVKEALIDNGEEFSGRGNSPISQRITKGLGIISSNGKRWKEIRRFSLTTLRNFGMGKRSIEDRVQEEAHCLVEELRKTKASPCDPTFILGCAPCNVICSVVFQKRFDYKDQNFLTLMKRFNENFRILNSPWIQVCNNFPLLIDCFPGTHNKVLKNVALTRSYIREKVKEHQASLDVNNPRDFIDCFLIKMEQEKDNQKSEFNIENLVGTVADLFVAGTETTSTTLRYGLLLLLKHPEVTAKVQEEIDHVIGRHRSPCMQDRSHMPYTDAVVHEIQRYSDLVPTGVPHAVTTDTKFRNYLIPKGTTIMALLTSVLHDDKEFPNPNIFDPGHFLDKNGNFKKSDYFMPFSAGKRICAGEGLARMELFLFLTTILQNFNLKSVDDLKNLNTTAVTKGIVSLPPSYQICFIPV
Kind of series: Activity of human recombinant CYP2C8 assessed as compound remaining. It is filed as ADME. To be noted: recombinant enzyme.

Series [6] deals with Cytochrome P450 2C19 (Homo sapiens, UniProt P33261). As to the kind of experiment: Activity of human recombinant CYP2C19 assessed as compound remaining. The series is classed as ADME. The conditions noted are these: recombinant enzyme.
Cytochrome P450 2C19, sequence (P33261 whole entry): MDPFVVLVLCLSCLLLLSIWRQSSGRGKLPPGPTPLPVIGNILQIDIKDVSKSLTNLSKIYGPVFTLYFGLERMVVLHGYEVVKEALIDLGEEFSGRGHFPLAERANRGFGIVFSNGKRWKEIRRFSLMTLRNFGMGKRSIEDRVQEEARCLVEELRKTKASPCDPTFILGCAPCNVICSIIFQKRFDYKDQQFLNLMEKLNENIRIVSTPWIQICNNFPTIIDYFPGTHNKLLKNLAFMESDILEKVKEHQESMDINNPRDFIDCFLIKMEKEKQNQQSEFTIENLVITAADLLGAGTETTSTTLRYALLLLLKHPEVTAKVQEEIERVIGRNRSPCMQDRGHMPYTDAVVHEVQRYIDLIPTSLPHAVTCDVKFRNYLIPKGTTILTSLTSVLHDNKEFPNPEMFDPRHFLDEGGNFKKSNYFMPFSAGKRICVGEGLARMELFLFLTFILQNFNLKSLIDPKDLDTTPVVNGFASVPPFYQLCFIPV
Series [7] concerns the target Cytochrome P450 2C9 (Homo sapiens, UniProt P11712). As to the kind of experiment: Activity of human recombinant CYP2C9 assessed as compound remaining. The series is classed as ADME. To be noted: recombinant enzyme.
Series [8] addresses Cytochrome P450 3A5 (Homo sapiens, UniProt P20815). Kind of series: Activity of human recombinant CYP3A5 assessed as compound remaining. To be noted: recombinant enzyme. It is filed as ADME.
Series [9] concerns the target Cytochrome P450 3A4 (Homo sapiens, UniProt P08684). As to the kind of experiment: Activity of human recombinant CYP3A4 assessed as compound remaining. The series is classed as ADME. The conditions noted are these: recombinant enzyme.
The test system of series [10] is Liver microsomes. As to the kind of experiment: Metabolic stability in rat liver microsomes in presence of non-selective cytochrome P450 inhibitor ketoconazole. The series is classed as ADME, Microsome.
For series [11], the system named is Liver microsomes. Kind of series: Metabolic stability in rat liver microsomes in presence of CYP2C9 inhibitor sulfaphenazole. It is filed as ADME, Microsome.
Series [12] relates to Liver microsomes. As to the kind of experiment: Metabolic stability in rat liver microsomes in presence of CYP2D6 inhibitor quinidine. It is filed as ADME, Microsome.

Cytochrome P450 2C9, sequence (P11712 whole entry): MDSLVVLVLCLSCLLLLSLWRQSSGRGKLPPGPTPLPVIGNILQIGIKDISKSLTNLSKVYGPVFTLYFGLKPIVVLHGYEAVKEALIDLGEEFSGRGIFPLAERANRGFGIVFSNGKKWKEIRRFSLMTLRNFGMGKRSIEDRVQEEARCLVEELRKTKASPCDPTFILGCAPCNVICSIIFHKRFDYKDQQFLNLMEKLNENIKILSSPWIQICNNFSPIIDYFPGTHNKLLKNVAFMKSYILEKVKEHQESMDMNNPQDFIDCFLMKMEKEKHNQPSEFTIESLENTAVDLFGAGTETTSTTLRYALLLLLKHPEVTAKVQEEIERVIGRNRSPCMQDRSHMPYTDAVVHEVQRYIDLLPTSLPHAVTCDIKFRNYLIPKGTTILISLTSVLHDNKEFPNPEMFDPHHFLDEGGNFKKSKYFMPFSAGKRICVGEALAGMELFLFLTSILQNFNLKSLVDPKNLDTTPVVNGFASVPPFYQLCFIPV
Cytochrome P450 3A4, sequence (P08684 whole entry): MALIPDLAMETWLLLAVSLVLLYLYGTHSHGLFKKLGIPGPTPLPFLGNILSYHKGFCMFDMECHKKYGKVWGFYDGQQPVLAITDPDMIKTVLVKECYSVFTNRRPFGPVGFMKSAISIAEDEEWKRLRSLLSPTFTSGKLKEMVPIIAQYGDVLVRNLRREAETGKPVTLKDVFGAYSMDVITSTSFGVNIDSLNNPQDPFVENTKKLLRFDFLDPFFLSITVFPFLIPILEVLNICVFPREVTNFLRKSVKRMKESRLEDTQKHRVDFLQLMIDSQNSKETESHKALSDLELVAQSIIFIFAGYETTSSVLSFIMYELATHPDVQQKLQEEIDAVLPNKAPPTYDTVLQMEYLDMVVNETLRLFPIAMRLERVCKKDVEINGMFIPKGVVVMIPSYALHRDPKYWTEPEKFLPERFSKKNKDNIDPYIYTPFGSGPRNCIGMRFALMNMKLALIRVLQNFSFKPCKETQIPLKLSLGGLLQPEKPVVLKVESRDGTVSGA
Cytochrome P450 3A5, sequence (P20815 whole entry): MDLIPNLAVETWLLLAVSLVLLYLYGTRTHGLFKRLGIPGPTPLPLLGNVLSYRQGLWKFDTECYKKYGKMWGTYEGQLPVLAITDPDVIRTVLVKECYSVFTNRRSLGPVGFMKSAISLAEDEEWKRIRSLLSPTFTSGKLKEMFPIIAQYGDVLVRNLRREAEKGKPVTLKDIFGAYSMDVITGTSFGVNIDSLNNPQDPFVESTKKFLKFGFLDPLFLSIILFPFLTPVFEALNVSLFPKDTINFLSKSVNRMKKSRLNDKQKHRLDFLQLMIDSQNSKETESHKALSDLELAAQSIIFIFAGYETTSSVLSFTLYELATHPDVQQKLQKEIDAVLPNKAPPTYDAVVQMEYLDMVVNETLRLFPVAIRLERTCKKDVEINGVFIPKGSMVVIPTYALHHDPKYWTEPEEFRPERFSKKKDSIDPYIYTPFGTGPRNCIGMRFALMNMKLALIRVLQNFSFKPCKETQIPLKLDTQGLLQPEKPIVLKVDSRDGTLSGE

As to `Cc1nc2c([nH]1)c(=O)n(C)c(=O)n2Cc1ccco1` [FURAFYLLINE], in series [1], the Stability is 0.12 µM.
Regarding `O=C(N/N=C/c1cccs1)c1ccc2c(c1)OCO2`, the Activity in series [2] is recorded as 98%; in [3], 67%; in [4], 95%; in [5], 99%; in series [6] it was 96%; in series [7], 81%. Besides, the results for the Activity in [8] and in [9] were 100% and 92%, respectively.
As for `CC(=O)N1CCN(c2ccc(OCC3COC(Cn4ccnc4)(c4ccc(Cl)cc4Cl)O3)cc2)CC1` (configuration not stated) [KETOCONAZOLE], in series [10], the Stability turned out to be 0.31 µM.
With `Nc1ccc(S(=O)(=O)Nc2ccnn2-c2ccccc2)cc1` [SULFAPHENAZOLE], in series [11], the Stability stood at 0.85 µM.
Take `C=C[C@H]1C[N@@]2CC[C@H]1C[C@@H]2[C@@H](O)c1ccnc2ccc(OC)cc12` [QUINIDINE]: in series [12], the Stability turned out to be 0.91 µM.

(Values after ChEMBL document CHEMBL1649403, “CYP1A2-mediated biotransformation of cardioactive 2-thienylidene-3,4-methylenedioxybenzoylhydrazine (LASSBio-294) by rat liver microsomes and human recombinant CYP enzymes” (Eur J Med Chem, 2011).)
